# From US6548550B1, “Pharmaceutical compositions containing N-palmitoylethanolamide and use thereof in the veterinary field” (Innovet Italia S.r.l., priority 2002, dated 2003)
# Read-outs that look alike come from different tables or passages of the source.
# How the values were obtained:
# [1] = test system: eosinophilic skin condition in cats; conditions: for SIGNS plaque-granuloma-miliary scabs % improved / SIGNS plaque-granuloma-miliary scabs % unchanged / SIGNS plaque-granuloma-miliary scabs % worsened / SYMPTOMS pruritis-erythema-alopecia % improved / SYMPTOMS pruritis-erythema-alopecia % unchanged / SYMPTOMS pruritis-erythema-alopecia % worsened: cats
# Description: Included in the investigation were 15 cats of European race with short hair, of which 9 were female and 6 were male, with ages of between 7 and 123 months. […] A numerical evaluation relating to the intensity and location of the signs and symptoms was assigned to each individual animal in accordance with the P.A.S.I. (psoriasis area severity index) “score” (Marks R. et al., 1989, Arch. Dermatol., 125:235-240). The improvements in the clinical signs and in the associated lesions were evaluated on the 15th and 30th days of treatment. The treatment consisted of a preparation in accordance with Example 3 of the pharmaceutical preparations given below, containing 120 mg of micronized N-palmitoylethanolamide. The active ingredient was administered in a proportion of 10 mg/kg/die for 30 days.
# [2] = Particle size analysis of micronized PEA (Mastersizer); assay type: physicochemical
# Description: The micronization of PEA and its co-micronization with excipients were performed with compressed-air turbine micronizing apparatus. This apparatus is known and is not therefore described in greater detail. The product obtained was subjected to analysis of the particles with Mastersizer, μ version apparatus from Malvern Instruments Co. UK.
Compound,SIGNS plaque-granuloma-miliary scabs % improved ([1]; T15 (15th day of treatment)) [%],SIGNS plaque-granuloma-miliary scabs % unchanged ([1]; T15 (15th day of treatment)) [%],SIGNS plaque-granuloma-miliary scabs % worsened ([1]; T15 (15th day of treatment)) [%],SYMPTOMS pruritis-erythema-alopecia % improved ([1]; T15 (15th day of treatment)) [%],SYMPTOMS pruritis-erythema-alopecia % unchanged ([1]; T15 (15th day of treatment)) [%],SYMPTOMS pruritis-erythema-alopecia % worsened ([1]; T15 (15th day of treatment)) [%],SIGNS plaque-granuloma-miliary scabs % improved ([1]; T30 (30th day of treatment)) [%],SIGNS plaque-granuloma-miliary scabs % unchanged ([1]; T30 (30th day of treatment)) [%],SIGNS plaque-granuloma-miliary scabs % worsened ([1]; T30 (30th day of treatment)) [%],SYMPTOMS pruritis-erythema-alopecia % improved ([1]; T30 (30th day of treatment)) [%],SYMPTOMS pruritis-erythema-alopecia % unchanged ([1]; T30 (30th day of treatment)) [%],SYMPTOMS pruritis-erythema-alopecia % worsened ([1]; T30 (30th day of treatment)) [%],quantity % of particles <6μ ([2]; particle size <6μ) [%],quantity % of particles <10μ ([2]; particle size <10μ) [% approx.],quantity % of particles >14μ ([2]; particle size >14μ),side effects compared with cortisones ([1]; in vivo)
"CCCCCCCCCCCCCCCC(=O)NCCO [non-micronized PEA, N-palmitoylethanolamide]",14.6,85.4,0,8.2,91.8,0,51.4,48.6,0,52,48,0,,,,
"CCCCCCCCCCCCCCCC(=O)NCCO [PEA, N-palmitoylethanolamide]",,,,,,,,,,,,,80,~96,traces,does not have the serious side effects typical of these drugs
